What was measured:
Leukotrienes = assay: inhibition of leukotriene biosynthesis in vivo, rat peritoneal anaphylaxis model, oral; settings: oral gavage, 1 h before antigen challenge; for inhibition in vivo at 100 µmol/kg: 100 μmol/kg, read-out: % Inhibition of Leukotrienes, Oral Dose at 100 μmol/kg; for inhibition in vivo at 30 µmol/kg: read-out: % Inhibition of Leukotrienes, Oral Dose at 30 μmol/kg
Description: Inhibition of the biosynthesis of leuktrienes in vivo after oral administration of compound was determined using a rat peritoneal anaphylaxis model in a similar manner as that described by Young and coworkers (Young, P. R.; Dyer, R. D.; Carter, G. W. Fed. Proc., Fed. Am. Soc. Exp. Biol. 1985, 44, 1185). In this model rats were injected intraperitoneally (ip) with rabbit antibody to bovine serum albumin (BSA) and three hours later injected ip with BSA to induce an antgen-antibody response. Rats were sacrificed 15 minutes after this challenge and the peritoneal fluids were collected and analyzed for leukotriene levels. Test compounds were administered by gavage one hour prior to the antigen challenge. Percent inhibition values were determined by comparing the treatment group to the mean of the control group.

[1] = biological target: T1, 5-Lipoxygenase from HWBL-1 20,000 xg Supernatant (Rattus norvegicus, UniProt P12527); assay: 5-lipoxygenase inhibition, 20,000 xg supernatant of homogenized HWBL-1 cells, radiolabeled arachidonic acid; format: biochemical; settings: read-out: IC50 (in vitro inhibitory potency against 5-lipoxygenase)
T1 construct: 20,000 xg supernatant from 1.5 million homogenized HWBL-1 cells; endogenous in cells
T1 sequence (P12527 1-673): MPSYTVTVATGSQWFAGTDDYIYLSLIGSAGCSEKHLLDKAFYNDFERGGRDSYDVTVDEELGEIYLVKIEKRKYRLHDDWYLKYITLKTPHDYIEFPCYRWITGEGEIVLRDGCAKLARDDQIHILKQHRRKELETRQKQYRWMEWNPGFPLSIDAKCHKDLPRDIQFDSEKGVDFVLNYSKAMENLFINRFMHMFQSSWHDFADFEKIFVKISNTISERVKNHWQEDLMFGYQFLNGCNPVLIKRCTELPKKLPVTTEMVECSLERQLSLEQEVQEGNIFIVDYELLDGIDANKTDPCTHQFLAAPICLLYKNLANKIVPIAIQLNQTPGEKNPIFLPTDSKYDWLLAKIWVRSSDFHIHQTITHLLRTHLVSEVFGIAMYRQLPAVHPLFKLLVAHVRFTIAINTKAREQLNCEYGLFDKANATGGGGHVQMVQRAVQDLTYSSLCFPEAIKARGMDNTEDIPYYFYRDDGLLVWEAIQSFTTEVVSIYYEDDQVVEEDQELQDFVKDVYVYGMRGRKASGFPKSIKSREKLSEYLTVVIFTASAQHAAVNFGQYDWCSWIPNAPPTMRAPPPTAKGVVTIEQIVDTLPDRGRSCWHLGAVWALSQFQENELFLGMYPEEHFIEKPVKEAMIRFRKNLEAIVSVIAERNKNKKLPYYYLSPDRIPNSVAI
Description: Assays to determine 5-lipoxygenase inhibitory activity of representative compounds of the present invention were performed in […] incubations containing the 20,000 xg supernatant from 1.5 million homogenized HWBL-1 cells and various concentrations of the test compound. Reactions were initiated by addition of radiolabeled arachidonic acid and terminated by acidification and ether extraction. Reaction products were separated from nonconverted substrate by thin layer chromatography and measured by liquid scintillation spectroscopy. All incubations are performed in triplicate. Inhibition of 5-lipoxygenase activity was calculated as the ratio of the amount of product formed in the presence and absence of inhibitor. IC50 values (concentration of compound producing 50% enzyme inhibition) were calculated by linear regression analysis of percentage inhibition versus log inhibitor concentration plots. (Dyer, R. D.; Haviv, F.; Hanel, A. M.; Bornemier, D. A.; Carter, G. W. Fed. Proc., Fed. Am. Soc. Exp. Biol. 1984, 43, 1462A).
In Vitro Inhibitory Potencies of Compounds of this Invention
Against 5-Lipoxygenase from HWBL-1 20,000 xg Supernatant

Compound | IC50 [1] [µM] | inhibition in vivo at 100 µmol/kg (Leukotrienes) [%] | inhibition in vivo at 30 µmol/kg (Leukotrienes; 30 μmol/kg) [%] | % Inhibition of Leukotrienes, Oral Dose at 30 μmol/kg (Leukotrienes; 30 μmol/kg) [%] | % Inhibition of Leukotrienes, Oral Dose at 50 μmol/kg (Leukotrienes) [%]
CC(CCNC(=O)c1ccc(Oc2ccc(F)cc2)o1)N(O)C(N)=O (centres unmarked) [Example 88, N-Hydroxy-N-[4-((5-(4-fluorophenoxy)furan-2-oyl)amino)but-2-yl]urea] | 0.28 | – | 84 | – | –
CNC(=O)N(O)CCCNC(=O)c1cccc(Oc2ccccc2)c1 [Example 23, N-Hydroxy-N'-methyl-N-[3-((3-phenoxybenzoyl)amino)propyl]urea] | – | – | 57 | – | –
NC(=O)N(O)CCNC(=O)COc1ccccc1Oc1ccccc1 [Example 73, N-Hydroxy-N-[2-((2-phenoxyphenoxyacetyl)amino)ethyl]urea] | – | – | 53 | – | –
NC(=O)N(O)CCNC(=O)c1ccc(Oc2ccc(F)cc2)o1 [Example 61] | 0.16 | – | – | – | 60
NC(=O)N(O)CCNC(=O)c1cc2ccccc2o1 [Example 63, N-Hydroxy-N-[((benzo[b]furan-2-oyl)amino)ethyl]urea] | 1 | – | 52 | – | –
NC(=O)N(O)CCNC(=O)c1cccc(Oc2ccc(Br)cc2)c1 [Example 53, N-Hydroxy-N-[2-(3-((4-bromophenoxy)benzoyl)amino)ethyl]urea] | 0.44 | – | 33 | – | –
C[C@H](CN(O)C(N)=O)NC(=O)c1cccc(Oc2ccccc2)c1 [Example 32, (R)-N-Hydroxy-N-[2-((3-phenoxybenzoyl)amino)propyl]urea] | 0.21 | 90 | – | – | –
NC(=O)N(O)CCNC(=O)c1ccccc1Oc1ccccc1 [Example 51, N-Hydroxy-N-[2-((2-phenoxybenzoyl)amino)ethyl]urea] | 0.24 | – | 47 | – | –
CCCCOc1cccc(C(=O)NCCN(O)C(N)=O)c1 [Example 19] | 0.26 | 63 | – | – | –
NC(=O)N(O)CCNC(=O)Cc1cccc(Oc2ccccc2)c1 [Example 56, N-Hydroxy-N-[2-((3-phenoxyphenylacetyl)amino)ethyl]urea] | 0.22 | 85 | – | – | –
NC(=O)N(O)CCNC(=O)c1cccc(Oc2ccc(F)cc2)c1 [Example 54, N-Hydroxy-N-[2-(3-((4-fluorophenoxy)benzoyl)amino)ethyl]urea] | 0.15 | – | 11 | – | –
CC(Oc1ccccc1C(=O)NCCN(O)C(N)=O)c1ccccc1 (centres unmarked) [Example 87, N-Hydroxy-N-[2-((2-(1-phenylethyloxy)benzoyl)amino)ethyl]urea] | 0.37 | 60 | – | – | –
CN(CCN(O)C(N)=O)Cc1cccc(Oc2ccc(Cl)c(Cl)c2)c1 [Example 39, N-Hydroxy-N-[2-(N-methyl((3-(3,4-dichlorophenoxy)phenyl)methyl)amino)ethyl]urea] | 0.31 | – | – | – | –
NC(=O)N(O)CCNC(=O)c1ccc(Oc2ccccc2)cc1 [Example 52, N-Hydroxy-N-[2-((4-phenoxybenzoyl)amino)ethyl]urea] | 0.16 | – | 19 | – | –

Now from value to compound, other results behind:

IC50 [1] [µM] | Compound | inhibition in vivo at 100 µmol/kg (Leukotrienes) [%] | inhibition in vivo at 30 µmol/kg (Leukotrienes; 30 μmol/kg) [%] | % Inhibition of Leukotrienes, Oral Dose at 30 μmol/kg (Leukotrienes; 30 μmol/kg) [%] | % Inhibition of Leukotrienes, Oral Dose at 50 μmol/kg (Leukotrienes) [%]
0.15 | CN(CCN(O)C(N)=O)Cc1cccc(Oc2cc(Cl)cc(Cl)c2)c1 [Example 40, N-Hydroxy-N-[2-(N-methyl-((3-(3,5-dichlorophenoxy)phenyl)methyl)amino)ethyl]urea] | 76 | – | – | –
0.1 | CN(CCN(O)C(N)=O)Cc1cccc(Oc2ccc(Cl)cc2)c1 [Example 37, N-Hydroxy-N-[2-(N-methyl-((3-(4-chlorophenoxy)phenyl)methyl)amino)ethyl]urea] | 80 | – | – | –
1 | NC(=O)N(O)CCNC(=O)c1cccc(Oc2ccccn2)c1 [Example 55, N-Hydroxy-N-[2-((3-(pyrid-2-yloxy)benzoyl)amino)ethyl]urea] | 83 | – | – | –
0.22 | NC(=O)N(O)CCNC(=O)c1cccc(OCc2ccccc2)c1 [Example 35, N-Hydroxy-N-[2-((3-phenylmethyloxybenzoyl)amino)ethyl]urea] | 15 | – | – | –
0.2 | COc1ccc(Oc2cccc(CN(C)CCN(O)C(N)=O)c2)cc1 [Example 38] | 86 | – | – | –
2.1 | N-Hydroxy-N-[((4-chlorobenzo[b]thien-2-oyl)amino)ethyl]urea [Example 64] | – | – | 92 | –
0.07 | NC(=O)N(O)CCCNC(=O)c1cccc(Oc2ccccc2)c1 [Example 21] | 95 | – | – | –
0.11 | NC(=O)N(O)CCNC(=O)c1ccc(Oc2ccc(Cl)cc2)o1 [Example 58, N-Hydroxy-N-[2-((5-(4-chlorophenoxy)furan-2-oyl)amino)ethyl]urea] | – | – | – | 81
0.16 | NC(=O)N(O)CCNC(=O)c1cccc(Oc2ccc(Cl)cc2)c1 [Example 26, N-Hydroxy-N-[2-((3-(4-chlorophenoxy)benzoyl)amino)ethyl]urea] | 99 | – | – | –
0.13 | NC(=O)N(O)CCNC(=O)c1ccc(Oc2ccccc2)o1 [Example 36, N-Hydroxy-N-[2-((5-phenoxyfuran-2-oyl)amino)ethyl]urea] | – | 78 | – | –
0.23 | NC(=O)N(O)CCNC(=O)c1cccc(Oc2ccccc2)c1 [Example 2] | 84 | – | – | –
0.28 | C[C@@H](CN(O)C(N)=O)NC(=O)c1ccc(Oc2ccc(F)cc2)o1 [Example 60] | 84 | – | – | –
1.8 | CN(CCN(O)C(N)=O)C(=O)Cc1ccc(Br)cc1 [Example 14, N-Hydroxy-N-[2-(((4-bromophenylacetyl)-N-methyl)amino)ethyl]urea] | – | – | – | –

Reference: patent US5214204A, “Arylamidoalkyl-N-hydroxyurea compounds having lipoxygenase inhibitory activity” (Abbott Laboratories, priority 1991, dated 1993)
